`Nc1nc(N)nc(Cl)n1`: the logP (usually the decadic logarithm of the partition coefficient of the neutral form, usually between octanol and water) stood at 0.11. As to `CCNc1nc(N)nc(=O)[nH]1`, the logP was -0.3. Compound `O=c1[nH]c(=O)[nH]c(=O)[nH]1` had a logP of -0.47. `CCNc1nc(NC(C)(C)C)nc(=O)[nH]1` returned a logP of 1.5. To `Nc1nc(N)[nH]c(=O)n1` belongs -0.46. In turn, `CC(C)Nc1nc(N)[nH]c(=O)n1` had a logP of -0.08. `CCC(C)Nc1nc(N)nc(Cl)n1` (centres undefined): the logP worked out at 1.78. The compound `Nc1nc(N)nc(N)n1` gave a logP of -0.4.

`Cc1nnc(-c2ccccc2)c(=O)n1N` returned a logP of 0.98.

Compound `CCNc1nc(NC(C)C)nc(=O)[nH]1` returned a logP of 0.76.

For `Nc1nc(N)nc(NC2CC2)n1`, the logP was determined as 0.05. Take `COc1nc(NC(C)C)nc(NC(C)C)n1`: the logP was found to be 2.6. The compound `CNc1nc(NC)nc(NC(C)C)n1` displayed a logP of 1.87. The compound `CCNc1nc(NCC)[nH]c(=O)n1` yielded a logP of 0.35. `CCNc1nc(N=[N+]=[N-])nc(NC(C)C)n1` gave a logP of 2.57. With `CC(C)(C)Nc1nc(N)[nH]c(=O)n1` the figure was 0.43; with `CCNc1nc(N)nc(OC)n1`, 0.83.

As for `CCN(CC)c1nc(N)nc(Cl)n1`, the logP was 2.12. Take `COc1nc(N)nc(NC(C)(C)C)n1`: the logP worked out at 1.93.

(Values after the SangsterLogP compilation.)
